Measurements: US6680333B2, “Imidazolidine derivatives, their preparation, their use and pharmaceutical preparations comprising them” (Aventis Pharma Deutschland GmbH, priority 2001, dated 2004)
Where a name gives a salt, the structure may show the parent alone.

target: T1, adhesion of U937 cells (VLA-4) to hVCAM-1(1-3)-IgG (Homo sapiens, UniProt P05556+P13612); test: U937/VCAM-1 cell adhesion test; format: cell-based; details: human U937 cells (ATCC CRL 1593); recombinant hVCAM-1(1-3)-IgG; read-out: IC50 (inhibition of the adhesion of U937 cells to hVCAM-1(1-3)-IgG by 50%)
T1 construct: the VLA-4 integrins, are supplied in their natural form as surface molecules on human U937 cells; host or cells: Human U937 cells carry endogenous VLA-4; The partner hVCAM-1(1-3)-IgG was made in transfected COS cells (ATCC CRL1651) and used as culture supernatant
T1 sequence (P13612 34-1032): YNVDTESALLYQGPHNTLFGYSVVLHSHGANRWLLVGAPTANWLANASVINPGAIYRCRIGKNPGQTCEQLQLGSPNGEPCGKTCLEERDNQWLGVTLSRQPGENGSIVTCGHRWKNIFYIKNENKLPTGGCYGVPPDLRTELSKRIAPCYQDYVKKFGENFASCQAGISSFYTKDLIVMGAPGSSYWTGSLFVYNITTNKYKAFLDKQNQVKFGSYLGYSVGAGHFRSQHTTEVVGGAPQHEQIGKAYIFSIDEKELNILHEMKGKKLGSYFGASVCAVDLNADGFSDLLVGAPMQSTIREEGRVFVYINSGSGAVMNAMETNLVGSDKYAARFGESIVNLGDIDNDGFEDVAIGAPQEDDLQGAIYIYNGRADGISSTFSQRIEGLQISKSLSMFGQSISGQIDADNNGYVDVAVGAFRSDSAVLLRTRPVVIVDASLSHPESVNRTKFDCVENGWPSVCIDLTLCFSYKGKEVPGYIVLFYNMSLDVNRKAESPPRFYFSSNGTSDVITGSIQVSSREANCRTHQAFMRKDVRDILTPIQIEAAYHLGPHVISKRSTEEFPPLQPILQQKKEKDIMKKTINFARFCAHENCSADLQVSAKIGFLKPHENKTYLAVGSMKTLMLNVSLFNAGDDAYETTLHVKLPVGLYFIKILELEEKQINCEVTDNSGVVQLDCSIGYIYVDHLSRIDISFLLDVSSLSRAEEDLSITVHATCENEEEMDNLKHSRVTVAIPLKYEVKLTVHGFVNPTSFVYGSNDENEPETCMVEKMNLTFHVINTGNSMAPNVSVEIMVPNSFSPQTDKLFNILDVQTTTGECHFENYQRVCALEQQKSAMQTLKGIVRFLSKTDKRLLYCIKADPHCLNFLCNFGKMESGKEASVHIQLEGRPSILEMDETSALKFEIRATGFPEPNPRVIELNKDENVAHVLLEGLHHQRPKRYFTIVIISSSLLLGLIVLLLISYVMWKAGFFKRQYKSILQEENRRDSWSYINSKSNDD
T1 sequence (P05556 21-798): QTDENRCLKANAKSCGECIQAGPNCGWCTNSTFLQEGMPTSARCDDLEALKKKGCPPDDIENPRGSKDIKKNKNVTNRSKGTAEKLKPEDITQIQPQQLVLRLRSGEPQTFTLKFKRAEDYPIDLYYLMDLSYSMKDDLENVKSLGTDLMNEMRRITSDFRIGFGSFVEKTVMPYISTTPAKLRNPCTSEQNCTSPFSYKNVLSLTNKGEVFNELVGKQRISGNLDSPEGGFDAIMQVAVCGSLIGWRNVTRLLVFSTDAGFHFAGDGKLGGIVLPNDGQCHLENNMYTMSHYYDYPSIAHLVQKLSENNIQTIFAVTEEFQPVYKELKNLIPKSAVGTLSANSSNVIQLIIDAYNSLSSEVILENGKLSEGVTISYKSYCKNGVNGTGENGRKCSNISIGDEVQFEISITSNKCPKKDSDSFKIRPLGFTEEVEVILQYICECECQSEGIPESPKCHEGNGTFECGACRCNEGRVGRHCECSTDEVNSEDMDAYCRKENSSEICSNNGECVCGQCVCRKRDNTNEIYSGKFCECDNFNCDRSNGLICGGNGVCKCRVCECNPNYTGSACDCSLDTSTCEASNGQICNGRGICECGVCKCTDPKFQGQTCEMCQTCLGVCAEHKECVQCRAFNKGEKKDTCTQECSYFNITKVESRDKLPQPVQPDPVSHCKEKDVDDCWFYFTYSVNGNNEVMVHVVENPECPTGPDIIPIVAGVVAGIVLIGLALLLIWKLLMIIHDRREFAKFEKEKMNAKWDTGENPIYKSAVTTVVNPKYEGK
Text: A) U937/VCAM-1 Cell Adhesion Test
The test method used for the activity of the compounds of formula I on the interaction between VCAM-1 and VLA-4 is the assay described below, which is specific for this interaction. The cellular binding components, i.e., the VLA-4 integrins, are supplied in their natural form as surface molecules on human U937 cells (ATCC CRL 1593), which belong to the leukocytes group. As specific binding components, recombinant soluble fusion proteins prepared by genetic engineering, consisting of the extracytoplasmic domain of human VCAM-1 and the constant region of a human immunoglobulin of subclass IgG1, are used.
Assay for the measurement of the adhesion of U937 cells (ATCC CRL 1593) to hVCAM-1(1-3)-IgG
1. Preparation of Human VCAM-1(1-3)-IgG and Human CD4-IgG
A genetic construct for the expression of the extracellular domain of human VCAM-1, combined with the genetic sequence of the heavy chain of the human immunoglobulin IgG1 (hinge, CH2 and CH3 regions) (from Dr. Brian Seed, Massachusetts General Hospital, Boston, USA; cf. Damle and Aruffo, Proc. Natl. Acad. Sci. USA, 88:6403 (1991)), was employed. The soluble fusion protein hVCAM-1(1-3)-IgG contained the three amino-terminal extracellular immunoglobulin-like domains of human VCAM-1 (Damle and Aruffo, Proc. Natl. Acad. Sci. USA, 88:6403 (1991)). CD4-IgG (Zettlmeissl et al., DNA and Cell Biology, 9:347 (1990)) served as a fusion protein for negative controls. The recombinant proteins were expressed as soluble proteins after DEAE/dextran-mediated DNA transfection in COS cells (ATCC CRL1651) according to standard procedures (Ausubel et al., “Current Protocols in Molecular Biology”, John Wiley & Sons, Inc., 1994).
2. Assay for the Measurement of the Adhesion of U937 Cells to hVCAM-1 (1-3)-IgG
2.1 96 well microtiter test plates (Nunc Maxisorb) were incubated at room temperature for 1 hour with 100 μL/well of a goat anti-human IgG antibody solution (10 μg/mL in 50 mM tris, pH 9.5). After removal of the antibody solution, washing was carried out once with PBS.
2.2 150 μL/well of a blocking buffer (1% BSA in PBS) were incubated on the plates at room temperature for 0.5 hour. After removal of the blocking buffer, washing was carried out once with PBS.
2.3 100 μL per well of a cell culture supernatant of transfected COS cells were incubated on the plates at room temperature for 1.5 hours. The COS cells were transfected with a plasmid which codes for the three N-terminal immunglobulin-like domains of VCAM-1, coupled to the Fc part of human IgG1 (hVCAM-l (1-3)-IgG). The content of hVCAM-1(1-3)-IgG was about 0.5-1 μg/mL. After removal of the culture supernatant, washing was carried out once with PBS.
2.4 The plates were incubated at room temperature for 20 minutes with 100 μL/well of Fc receptor block buffer (1 mg/mL γ-globulin, 100 mM NaCl, 100 μM MgCl2, 100 μM MnCl2, 100 μM CaCl2, 1 mg/mL BSA in 50 mM HEPES, pH 7.5). After removal of the Fc receptor block buffer, washing was carried out once with PBS.
2.5 20 μL of binding buffer (100 mM NaCl, 100 μM MgCl2, 100 μM MnCl2, 100 μM CaCl2, 1 mg/mL BSA in 50 mM HEPES, pH 7.5) were introduced, the substances to be tested were added in 10 μL of binding buffer and incubation was carried out for 20 minutes. Antibodies against VCAM-1 (BBT, No. BBA6) and against VLA-4 (Immunotech, No. 0764) served as controls.
2.6 U937 cells were incubated for 20 minutes in Fc receptor block buffer and then added by pipette in a concentration of 1×10^6/mL and in an amount of 100 μL per well (final volume […]).
2.7 The plates were slowly immersed at an angle of 45° in stop buffer (100 mM NaCl, 100 μM MgCl2, […], 100 μM CaCl2 in 25 mM tris, pH 7.5) and shaken off. The process was repeated.
2.8 50 μL/well of a dye solution (16.7 μg/mL of Hoechst dye 33258, 4% formaldehyde, 0.5% Triton X-100 in PBS) were then incubated on the plates for 15 minutes. […]

Point of comparison: COc1cc(CN2C(=O)N([C@@H](CC3CC3)C(=O)NC(CC(=O)O)c3ccncc3)C(=O)C2(C)C)ccc1NC(=O)Nc1ccccc1C (stereo partly drawn) [Example 13, 3-((S)-2-(4,4-Dimethyl-3-(4-(3-(2-methylphenyl)ureido)-3-methoxybenzyl)-2,5-dioxoimidazolidin-1-yl)-2-(cyclopropylmethyl)acetylamino)-3-(4-pyridyl)propionic Acid Hydrochloride], IC50 1.8 nM. Against it:
- COc1cc(CN2C(=O)N([C@@H](CC3CC3)C(=O)N[C@H](C)CC(=O)O)C(=O)C2(C)C)ccc1NC(=O)Nc1ccccc1C [Example 1, (R)-3-((S)-2-(4,4-Dimethyl-3-(4-(3-(2-methylphenyl)ureido)-3-methoxybenzyl)-2,5-dioxoimidazolidin-1-yl)-2-(cyclopropylmethyl)acetylamino)-3-methylpropionic Acid] — 6-fold lower, 0.3 nM
- COc1cc(CN2C(=O)N([C@@H](CC3CC3)C(=O)N[C@H](C)CC(=O)O)C(=O)C2(C)C)ccc1NC(=O)Nc1ccccc1C [Example 2] — 3.6-fold lower, 0.5 nM
- Cc1ccccc1NC(=O)Nc1ccc(CN2C(=O)N([C@@H](CC3CC3)C(=O)N[C@H](C)CC(=O)O)C(=O)C2(C)C)cc1O [Example 5, (R)-3-((S)-2-(4,4-Dimethyl-3-(4-(3-(2-methylphenyl)ureido)-3-hydroxybenzyl)-2,5-dioxoimidazolidin-1-yl)-2-(cyclopropylmethyl)acetylamino)-3-methylpropionic Acid] — 14-fold higher, 25.9 nM
- COc1cc(CN2C(=O)N([C@@H](CC3CC3)C(=O)N[C@H](C)CC(=O)O)C(=O)C2(C)C)ccc1NC(=O)Nc1ccccc1 [Example 7, (R)-3-((S)-2-(4,4-Dimethyl-3-(4-(3-phenylureido)-3-methoxybenzyl)-2,5-dioxoimidazolidin-1-yl)-2-(cyclopropylmethyl)acetylamino)-3-methylpropionic Acid] — within 1.5-fold, 2.1 nM
- COc1cc(CN2C(=O)N([C@@H](CC3CC3)C(=O)NC(CC(=O)O)c3cccnc3)C(=O)C2(C)C)ccc1NC(=O)Nc1ccccc1C (stereo partly drawn) [Example 10, 3-((S)-2-(4,4-Dimethyl-3-(4-(3-(2-methylphenyl)ureido)-3-methoxybenzyl)-2,5-dioxoimidazolidin-1-yl)-2-(cyclopropylmethyl)acetylamino)-3-(3-pyridyl)propionic Acid Hydrochloride] — 3-fold lower, 0.6 nM
- COc1cc(CN2C(=O)N([C@@H](CC3CC3)C(=O)NC(CC(=O)O)c3ccccn3)C(=O)C2(C)C)ccc1NC(=O)Nc1ccccc1C (stereo partly drawn) [Example 16, 3-((S)-2-(4,4-Dimethyl-3-(4-(3-(2-methylphenyl)ureido)-3-methoxybenzyl)-2,5-dioxoimidazolidin-1-yl)-2-(cyclopropylmethyl)acetylamino)-3-(2-pyridyl)propionic Acid] — 2-fold lower, 0.9 nM
- COc1cc(CN2C(=O)N([C@@H](CC3CC3)C(=O)N[C@@H](CC(=O)O)c3ccccc3)C(=O)C2(C(F)(F)F)C(F)(F)F)ccc1NC(=O)Nc1ccccc1C [Example 19, (S)-3-((S)-2-(4,4-Bis(trifluoromethyl)-3-(4-(3-(2-methylphenyl)ureido)-3-methoxybenzyl)-2,5-dioxoimidazolidin-1-yl)-2-(cyclopropylmethyl)acetylamino)-3-phenylpropionic Acid] — 2.4-fold higher, 4.4 nM
